Literature values in patent US8871277B2, “Particulate wood preservative and method for producing the same” (Osmose, Inc., priority 2003, dated 2014).
Read-outs that look alike come from different tables or passages of the source.

Assays:
[1] = solubility product constant
[2] = Synthetic Precipitation Leaching Procedure

Q: For copper 8-quinolinolate, which Ksp [1] is on record?
A: 2 E−30

Q: For `[Cu]` [copper], which solubility of copper (pH 4) is on record?
A: 640 ppm

Q: And the solubility of copper (pH 7)?
A: 2 ppm

Q: What about the solubility of copper (pH 10) of the same compound?
A: about 0.01 ppm

Q: With copper sulfide as the compound, how does the Ksp [1] read?
A: 6 E−36

Q: With copper citrate as the compound, how does the “copper in leachate from treated wood” value [2] read?
A: 62 mg copper per liter
